Results on 14 molecules are retold here after patent publication US10709714B2 (CL BioSciences LLC, priority 2013, dated 2020).

Read-outs that look alike come from different tables or passages of the source. Ends that are not written are not given here.

Assay [1] concerns isolated G cells. Put plainly: Gastrin release from isolated G cells. It is filed as cell-based. To be noted: for EC50: read-out: EC50, stimulation of gastrin release. Here is the method:
(§1) The effect of the ovarian hormone, estrogen on G cell function was evaluated.

Assay [2] relates to isolated G cells. Put plainly: cAMP production in isolated G cells. It is filed as cell-based. Here is the method: as §1
(In general: Cyclic AMP is a second messenger, typically raised through Gs and lowered through Gi signalling.)

Assay [3] has as its system MAPK phosphorylation in G cells. The assay is described as follows: MAPK phosphorylation in G cells. It is filed as cell-based. The following applies: preincubation.
Assay [4] relates to G cells. The assay is described as follows: Calcium influx in G cells (flow cytometry, FITC shift). The class given is cell-based. To be noted: CaCl2 4 mM. In general terms: In flow cytometry, cells or beads pass a laser one at a time.
Assay [5] deals with isolated rodent G cells. The following applies: for EC50: read-out: Calcium (EC50); for IC50: read-out: OCTR (IC50). From the text: This animal has been extensively studied as a model of gastric acid pathophysiology relevant to long-term pharmacological inhibition of acid secretion (low acid state pathobiology).
Assay [6] concerns PTH chief cells. To be noted: read-out: EC50, stimulation of PTH release; human PTH chief cells.
Assay [7] addresses T1, CCK2 receptor (Homo sapiens, UniProt P32239).
T1 construct: Gastrin stimulated both cAMP as well as calcitonin release from the well-differentiated human MTC cell line, MTC-SK; endogenous in cells; host or cells: MTC-SK (human medullary thyroid carcinoma cell line)
T1 sequence (P32239 1-447): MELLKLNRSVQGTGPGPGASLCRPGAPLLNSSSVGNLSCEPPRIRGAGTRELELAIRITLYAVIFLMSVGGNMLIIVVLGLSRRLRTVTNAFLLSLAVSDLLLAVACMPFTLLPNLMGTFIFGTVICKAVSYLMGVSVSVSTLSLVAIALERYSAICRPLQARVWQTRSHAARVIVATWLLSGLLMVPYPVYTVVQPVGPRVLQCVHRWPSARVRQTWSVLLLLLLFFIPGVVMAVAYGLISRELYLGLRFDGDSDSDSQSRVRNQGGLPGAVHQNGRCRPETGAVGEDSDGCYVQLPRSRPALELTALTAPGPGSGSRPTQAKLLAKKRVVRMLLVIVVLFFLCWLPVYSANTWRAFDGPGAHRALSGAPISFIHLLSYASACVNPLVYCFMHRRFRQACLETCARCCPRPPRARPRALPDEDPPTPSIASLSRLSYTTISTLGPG
Put plainly: Gastrin-stimulated cAMP production and calcitonin release/transcription in MTC-SK cells. It is filed as cell-based. To be noted: H-89 10 μM preincubation.

Assay [8] concerns isolated G cells. The assay is described as follows: Gastrin release from isolated G cells. The class given is cell-based. To be noted: for effect on CaCl2-mediated gastrin release: nifedipine 1 μm (preincubation 10 mins), H-89 10 μM, PD98059 0.1 μM, wortmannin 1 nM.
Assay [9] can be described thus: Plasma gastrin in Mastomys under irreversible gastric acid suppression. It is filed as in vivo. The following applies: Mastomys 6-9 months, treated 30 days, Loxtidine 1 mg/L in drinking water. From the text: This animal has been extensively studied as a model of gastric acid pathophysiology relevant to long-term pharmacological inhibition of acid secretion (low acid state pathobiology). […] Such treatment therefore results in an achlorhydric and hypergastrinemic animal model.

In assay [10] the test system is Mastomys femur. The assay is described as follows: Bone histomorphometry (TRAP-positive osteoclasts) in loxtidine-treated Mastomys. The class given is in vivo. Here is the method:
In one aspect, the changes in loxtidine-treated animals reflect loss of bone mineralization and increased resorption—features consistent with osteoporotic phenotypes. BM=bone mineralization, RC=resorption cavity.
Animals (females) 4-6 months old were treated with Loxtidine for 60 or 120 days. Age- and sex-matched untreated animals provided a control group.
Thereafter, bone histomorphometry was examined. […] Evidence of osteoid seams and osteomalacia was also noted (FIG. 21).

Assay [11] has as its target gastrin/CCK2 receptor (human, on isolated PTH chief cells and on the MTC-SK cell line) (human) (UniProt P32239). The assay is described as follows: cell-based or functional assay.
The conditions of assay [12]: 0.02-4 U/min, young anesthetized pigs; cited from earlier work.
For assay [13], the target named is PTH receptor on G cells. Put plainly: cell-based or functional assay.
In assay [14] the target is T2, calcitonin receptor on G cells.
T2 sequence (P30988 whole entry, species assumed, looked up): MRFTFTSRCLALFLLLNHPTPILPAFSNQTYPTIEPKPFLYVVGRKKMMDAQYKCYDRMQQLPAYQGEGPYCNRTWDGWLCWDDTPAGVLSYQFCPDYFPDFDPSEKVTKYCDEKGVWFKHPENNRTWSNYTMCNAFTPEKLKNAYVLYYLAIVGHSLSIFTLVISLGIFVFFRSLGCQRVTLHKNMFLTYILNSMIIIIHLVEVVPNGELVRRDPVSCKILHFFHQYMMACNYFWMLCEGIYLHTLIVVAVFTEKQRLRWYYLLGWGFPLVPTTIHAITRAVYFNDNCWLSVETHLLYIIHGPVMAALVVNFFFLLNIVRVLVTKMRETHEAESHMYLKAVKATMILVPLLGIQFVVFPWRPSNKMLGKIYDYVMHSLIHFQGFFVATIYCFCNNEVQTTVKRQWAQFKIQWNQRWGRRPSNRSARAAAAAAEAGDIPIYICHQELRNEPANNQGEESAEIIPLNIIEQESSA
Put plainly: cell-based or functional assay.

Setting [15] is: H-89 10 μM preincubation 10 mins.

With `C[C@]12CC[C@@H]3c4ccc(O)cc4CC[C@H]3[C@@H]1CC[C@@H]2O` [17β-estradiol], the “inhibition of gastrin release” value in [1] was approximately 20%. Moreover, the IC50 amounted to 4.6 pM in assay [1] (read-out: IC50, inhibition of gastrin release) and 0.0011 nM in assay [2] (read-out: IC50, inhibition of cAMP synthesis). Also, in assay [2], the “inhibition of cAMP production” value is −15%. For the same molecule, the “inhibition of MAPK phosphorylation” value in [3] was 75%.

For the molecule `[Ca+2].[Cl-].[Cl-]` [CaCl2], the “stimulation of gastrin release” value in assay [1] (isolated G cells) turned out to be 8 fold. Further, the EC50 in assay [1] (isolated G cells) is 4.1 mM; in [5] (Low acid G-cells) it was 10 mM; in assay [5] (Normal G-cells), 4 mM. In addition, in [2], the “cAMP production during calcium-mediated gastrin secretion” value is reported as “not associated with cAMP production”. Also, in [4], the “calcium influx (FITC shift rightwards)” value is on record as more than 5 fold.

On to `CC(C)C[C@H](NC(=O)[C@H](CCCCN)NC(=O)CNC(=O)[C@H](CC(C)C)NC(=O)[C@@H](NC(=O)[C@@H]1CSSC[C@H](N)C(=O)N[C@@H](CO)C(=O)N[C@@H](CC(N)=O)C(=O)N[C@@H](CC(C)C)C(=O)N[C@@H](CO)C(=O)N[C@@H]([C@@H](C)O)C(=O)N1)C(C)C)C(=O)N[C@@H](CO)C(=O)N[C@@H](CCC(N)=O)C(=O)N[C@@H](CCC(=O)O)C(=O)N[C@@H](CC(C)C)C(=O)N[C@@H](Cc1c[nH]cn1)C(=O)N[C@@H](CCCCN)C(=O)N[C@@H](CC(C)C)C(=O)N[C@@H](CCC(N)=O)C(=O)N[C@H](C(=O)N[C@@H](Cc1ccc(O)cc1)C(=O)N1CCC[C@H]1C(=O)N[C@@H](CCCNC(=N)N)C(=O)N[C@H](C(=O)N[C@@H](CC(N)=O)C(=O)N[C@H](C(=O)NCC(=O)N[C@@H](CO)C(=O)NCC(=O)N[C@H](C(=O)N1CCC[C@H]1C(N)=O)[C@@H](C)O)[C@@H](C)O)[C@@H](C)O)[C@@H](C)O` [Calcitonin], for which the “inhibition of gastrin release” value in assay [1] is on record as approximately 20%. In addition, in assay [2], the “inhibition of cAMP production” value was determined as 20%. Also, the IC50 in assay [2] (read-out: I50, inhibition of cAMP production) came out at 3.8 nM.

For `CSCC[C@H](NC(=O)[C@H](Cc1c[nH]c2ccccc12)NC(=O)CNC(=O)[C@H](Cc1ccc(O)cc1)NC(=O)[C@H](C)NC(=O)[C@H](CCC(=O)O)NC(=O)[C@H](CCC(=O)O)NC(=O)[C@H](CCC(=O)O)NC(=O)[C@H](CCC(=O)O)NC(=O)[C@H](CCC(=O)O)NC(=O)[C@H](CC(C)C)NC(=O)[C@H](Cc1c[nH]c2ccccc12)NC(=O)[C@@H]1CCCN1C(=O)CNC(=O)[C@@H]1CCC(=O)N1)C(=O)N[C@@H](CC(=O)O)C(=O)N[C@@H](Cc1ccccc1)C(N)=O` [Gastrin], the EC50 in assay [6] was found to be 0.42 nM.

With `O=S(=O)(NCCNC/C=C/c1ccc(Br)cc1)c1cccc2cnccc12` [H-89], the “effect on PTH-stimulated cAMP production” value in assay [2] (setting [15]) is reported as “reversed”. In addition, in [7], the “effect on gastrin-stimulated cAMP production” value is given as “inhibited” and the “effect on gastrin-stimulated calcitonin gene transcription” value is given as “reversed”. Moreover, the “effect on calcitonin inhibition of gastrin release” value in assay [8] (H-89 10 μM preincubation) is recorded as “reversed”. Besides, the “effect on PTH-stimulated gastrin release” value in [8] (setting [15]) is given as “inhibited”. The “effect on CaCl2-mediated gastrin release” value in assay [8] is “could not be inhibited”.

Take `Cn1nc(CO)nc1NCCCOc1cccc(CN2CCCCC2)c1` [Loxtidine]: the plasma gastrin levels in assay [9] is 104 ± 23 pg/mL. Also, the “numbers of TRAP-positive osteoclasts” value in assay [10] (8-week treated Mastomys) came out at 15±6; in assay [10] (16-week treated Mastomys), 16±4.5.

Regarding `C[C@@H](O)[C@@H]1NC(=O)[C@H](CCCCN)NC(=O)[C@@H](Cc2c[nH]c3ccccc23)NC(=O)[C@H](Cc2ccccc2)NC(=O)[C@@H](NC(=O)[C@H](N)Cc2ccccc2)CSSC[C@@H](C(=O)N[C@H](CO)[C@@H](C)O)NC1=O` [OCTR, octreotide], the “increase of IC50 in low acid versus normal G cells” value in assay [5] is on record as approximately 5 fold. The IC50 in [5] (Low acid G-cells) came to 0.14 nM; in assay [5] (Normal G-cells) it was 0.028 nM.

For the molecule `COc1cccc(-c2cc(=O)c3ccccc3o2)c1N` [PD98059], the “effect on CaCl2-mediated gastrin release” value in assay [8] was “could not be inhibited”.

For the molecule PTH: parathyroid hormone, in [1] (isolated G cells), the “stimulation of gastrin release” value is given as approximately 8 fold. Also, the EC50 in assay [1] (estimated) is 6e-05 mM; in assay [2] (read-out: E50, stimulation of cAMP production), 4 nM. The “stimulation of cAMP production” value in assay [2] is listed as 250%.

In [11], gastrin (ligand) showed a PTH release from isolated human PTH chief cells of 420 pM, a PTH synthesis in isolated human PTH chief cells of 1 nM and a cAMP production in MTC-SK cells of 0.67 pM.

Regarding “synthetic human 1-34 PTH: synthetic human 1-34 parathyroid hormone used in cited pig studies (SVSEIQLMHNLGKHLNSMERVEWLRKKLQDVHNF; Parathyroid hormone; UniProt P01270 32-65, looked up, fragment)”, the “increase in gastrin release” value in assay [12] is recorded as “approximately 10 fold”.

B1: PTH (parathyroid hormone) (ligand, UniProt P01270 32-115, looked up, species assumed)
Parathyroid hormone: SVSEIQLMHNLGKHLNSMERVEWLRKKLQDVHNFVALGAPLAPRDAGSQRPRKKEDNVLVESHEKSLGEADKADVNVLTKAKSQ
modifications: Parathyroid hormone
Turning to B1, in assay [13], the cAMP production in isolated G cells worked out at 4 nM and the gastrin release from isolated G cells amounted to 60 nM.

For CGNLSTCMLGTYTQDFNKFHTFPQTAIGVGAP (ligand, UniProt P01258 85-116, looked up, species assumed, ends and bridges not checked; cysteine pairing not given here) [calcitonin], in [14], the inhibition of cAMP production in isolated G cells stood at 3.8 nM and the inhibition of gastrin release from isolated G cells is 1.9 nM.

B2: native bovine PTH: native bovine parathyroid hormone used in cited pig studies (peptide, UniProt P01268 32-115, looked up)
Parathyroid hormone: AVSEIQFMHNLGKHLSSMERVEWLRKKLQDVHNFVALGASIAYRDGSSQRPRKKEDNVLVESHQKSLGEADKADVDVLIKAKPQ
modifications: Parathyroid hormone
notes: native bovine parathyroid hormone used in cited pig studies
For the molecule B2, the “increase in gastrin release” value in assay [12] was “approximately 10 fold”.
